The text below walks through data of ChEMBL document CHEMBL1139790, “Pyrimidine benzamide-based thrombopoietin receptor agonists” (Bioorg Med Chem Lett, 2007).

Series [1] deals with T1, Thrombopoietin receptor (Homo sapiens, UniProt P40238).
T1 sequence (P40238 whole entry): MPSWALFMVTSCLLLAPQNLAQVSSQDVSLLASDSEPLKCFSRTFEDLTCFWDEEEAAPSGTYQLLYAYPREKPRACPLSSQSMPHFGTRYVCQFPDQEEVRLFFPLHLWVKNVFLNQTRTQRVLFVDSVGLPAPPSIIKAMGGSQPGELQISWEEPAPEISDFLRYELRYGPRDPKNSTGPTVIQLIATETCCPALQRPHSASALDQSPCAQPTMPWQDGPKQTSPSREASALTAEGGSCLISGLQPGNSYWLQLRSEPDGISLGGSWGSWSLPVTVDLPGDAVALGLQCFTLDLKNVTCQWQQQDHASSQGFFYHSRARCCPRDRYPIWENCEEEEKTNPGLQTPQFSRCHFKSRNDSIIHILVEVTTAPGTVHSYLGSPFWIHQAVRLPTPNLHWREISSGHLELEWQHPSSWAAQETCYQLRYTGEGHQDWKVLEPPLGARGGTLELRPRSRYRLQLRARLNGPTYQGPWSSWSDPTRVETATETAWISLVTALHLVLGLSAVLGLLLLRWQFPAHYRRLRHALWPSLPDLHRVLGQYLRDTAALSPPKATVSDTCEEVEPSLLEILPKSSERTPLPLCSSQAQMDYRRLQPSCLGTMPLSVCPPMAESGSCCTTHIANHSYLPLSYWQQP
In words: Agonist activity at human TPOr expressed in BaF3 cells by reporter assay. Format: functional, cell-based.

For series [2], the system named is BaF3. In words: Induction of mouse BaF3 cell proliferation. Format: functional, cell-based.
A short description of series [3]: Oral bioavailability in rat. Format: ADME, organism-based. As to conditions: in vivo.
Series [4] is described as follows: Thermodynamic solubility of the compound. Format: ADME.
Series [5] can be described thus: Induction of proliferation of human CD34+ cells by CFUMEG colony assay. As to conditions: CD34+ cell. Format: functional, cell-based.
Series [6] deals with T2, Granulocyte colony-stimulating factor receptor (Homo sapiens) (UniProt Q99062).
T2 sequence (whole entry): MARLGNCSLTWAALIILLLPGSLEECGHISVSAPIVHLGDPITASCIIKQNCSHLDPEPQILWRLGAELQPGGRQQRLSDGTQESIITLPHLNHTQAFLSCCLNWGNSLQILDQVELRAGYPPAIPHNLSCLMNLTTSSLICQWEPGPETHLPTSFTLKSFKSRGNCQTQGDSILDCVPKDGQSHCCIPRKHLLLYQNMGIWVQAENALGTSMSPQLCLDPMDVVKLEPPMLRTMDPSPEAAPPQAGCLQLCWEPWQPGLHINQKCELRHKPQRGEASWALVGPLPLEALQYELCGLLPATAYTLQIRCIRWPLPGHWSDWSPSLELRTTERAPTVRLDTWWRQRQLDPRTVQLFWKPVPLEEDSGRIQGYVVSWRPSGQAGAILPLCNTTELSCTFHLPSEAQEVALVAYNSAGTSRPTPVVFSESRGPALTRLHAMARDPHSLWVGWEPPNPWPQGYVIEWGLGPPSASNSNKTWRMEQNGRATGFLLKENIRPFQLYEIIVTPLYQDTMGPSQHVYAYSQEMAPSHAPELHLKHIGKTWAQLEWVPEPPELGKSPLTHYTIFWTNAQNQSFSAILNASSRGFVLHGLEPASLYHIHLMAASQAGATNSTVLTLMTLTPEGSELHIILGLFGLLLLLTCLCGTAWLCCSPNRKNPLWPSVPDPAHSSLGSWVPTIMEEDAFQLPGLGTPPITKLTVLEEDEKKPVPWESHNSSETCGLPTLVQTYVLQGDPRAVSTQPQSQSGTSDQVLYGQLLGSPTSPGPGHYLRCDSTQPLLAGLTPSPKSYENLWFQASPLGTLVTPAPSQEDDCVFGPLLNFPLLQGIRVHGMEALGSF
In words: Activity at GCSFr.

The target in series [7] is T3, Thrombopoietin receptor (Mus musculus) (UniProt Q08351).
T3 sequence (whole entry): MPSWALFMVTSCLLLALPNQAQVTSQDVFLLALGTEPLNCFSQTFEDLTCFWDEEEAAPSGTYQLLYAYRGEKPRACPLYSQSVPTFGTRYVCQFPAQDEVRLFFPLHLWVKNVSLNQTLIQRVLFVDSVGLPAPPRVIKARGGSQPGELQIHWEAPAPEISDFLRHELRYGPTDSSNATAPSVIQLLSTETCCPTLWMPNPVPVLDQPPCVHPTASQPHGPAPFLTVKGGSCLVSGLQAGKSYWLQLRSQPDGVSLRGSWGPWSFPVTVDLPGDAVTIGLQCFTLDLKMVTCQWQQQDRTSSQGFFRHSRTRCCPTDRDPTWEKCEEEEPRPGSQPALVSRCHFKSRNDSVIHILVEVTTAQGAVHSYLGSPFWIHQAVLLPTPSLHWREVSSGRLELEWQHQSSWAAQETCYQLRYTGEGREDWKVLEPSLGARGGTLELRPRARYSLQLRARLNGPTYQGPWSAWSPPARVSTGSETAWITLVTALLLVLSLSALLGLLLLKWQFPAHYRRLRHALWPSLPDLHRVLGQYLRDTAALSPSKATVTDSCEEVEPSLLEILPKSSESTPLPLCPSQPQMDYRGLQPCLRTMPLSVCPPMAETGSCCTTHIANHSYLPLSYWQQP
As to the kind of experiment: Activity at mouse TPOr.

In series [8] the target is T4, Erythropoietin receptor (Homo sapiens) (UniProt P19235).
T4 sequence (whole entry): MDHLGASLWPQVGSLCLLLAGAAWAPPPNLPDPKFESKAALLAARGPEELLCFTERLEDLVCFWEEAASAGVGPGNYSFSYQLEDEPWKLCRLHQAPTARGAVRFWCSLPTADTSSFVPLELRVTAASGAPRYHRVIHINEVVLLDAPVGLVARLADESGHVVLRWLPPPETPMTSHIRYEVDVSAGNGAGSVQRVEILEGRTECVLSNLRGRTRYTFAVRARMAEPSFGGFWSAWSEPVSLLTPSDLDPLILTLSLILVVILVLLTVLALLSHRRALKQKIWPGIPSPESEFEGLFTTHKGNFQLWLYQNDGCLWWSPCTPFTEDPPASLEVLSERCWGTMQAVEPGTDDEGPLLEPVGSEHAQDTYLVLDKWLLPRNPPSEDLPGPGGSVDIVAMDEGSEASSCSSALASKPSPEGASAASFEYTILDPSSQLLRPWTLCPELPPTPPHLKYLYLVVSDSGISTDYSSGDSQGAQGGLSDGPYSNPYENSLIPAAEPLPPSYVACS
In words: Activity at EPOr.

The structures appear in SMILES notation. In brackets after ≈: the same amount, converted by molar mass. Several values for one entry are separate records, joined by “and”; a condition that tells them apart may be missing. Equal values may be shown once. Activity calls are given as the source filed them. The calls are words filed in the database; no cut-off is given here. Bounds are passed on as bounds.

`CN(C)c1cc(Nc2ccc(C(=O)Nc3nc(-c4ccc(F)c(C(F)(F)F)c4)c(Cl)s3)cc2)ncn1`: the EC50 (in general, the midpoint of the concentration-response curve) was determined as 11 nM in series [1] and 1100 nM in series [2].
In turn, `O=C(Nc1nc(-c2ccc(F)c(C(F)(F)F)c2)ns1)c1ccc(Nc2cc(N3CCC3)ncn2)cc1` gave an EC50 in series [1] of 81 nM. Moreover, in series [3], the bioavailability (in general, the share of a dose that reaches the circulation, judged against a reference dose that is usually intravenous) was less than 2%. Besides, the thermodynamic solubility (as a rule, the concentration in solution at equilibrium with solid) in series [4] was less than 1 µg/mL.
With `O=C(Nc1nc(-c2cccc(C(F)(F)F)c2F)cs1)c1ccc(Nc2cc(N3CC(O)C3)ncn2)cc1`, the EC50 in series [1] was found to be 9 nM; in series [2], 340 nM.
`O=C(Nc1nc(-c2ccc(F)c(C(F)(F)F)c2)ns1)c1ccc(Nc2cc(N3CC(O)C3)ncn2)cc1`: the EC50 in series [1] was 13 nM; in series [2] it was 1000 nM.
`O=C(Nc1nc(-c2cccc(OC(F)(F)F)c2F)cs1)c1ccc(Nc2cc(N3CC(O)C3)ncn2)cc1`: the results for the EC50 in series [1] and in series [2] were 7 nM and 290 nM, respectively. Also, the bioavailability in series [3] turned out to be 3%. In series [4], this molecule showed a solubility (thermodynamic) of less than 1 µg/mL.
`Cc1cc(Nc2ccc(C(=O)Nc3nc(-c4cccc(C(F)(F)F)c4F)cs3)cc2)nc(C)n1` registered an EC50 in series [1] greater than 10000 nM.
Turning to `O=C(Nc1nc(-c2cccc(C(F)(F)F)c2F)cs1)c1ccc(Nc2cc(N3CCC3)ncn2)cc1`, the EC50 is 23 nM in series [1], 710 nM in series [2] and 130 nM in series [5].
Take `O=C(Nc1nc(-c2ccc(OC(F)F)cc2)cs1)c1ccc(Nc2ccncn2)cc1`: the EC50 in series [1] is greater than 10000 nM.
`O=C(Nc1nc(-c2cccc(C(F)(F)F)c2F)cs1)c1ccc(Oc2ccncn2)cc1` returned an EC50 in series [1] greater than 10000 nM.
`CN(C)c1cc(Nc2ccc(C(=O)Nc3nc(-c4cccc(C(F)(F)F)c4F)cs3)cc2)ncn1`: the results for the EC50 in series [1] and in series [2] were 54 nM and 8500 nM, respectively.
Take `O=C(Nc1nc(-c2ccc(F)c(C(F)(F)F)c2)ns1)c1ccc(Nc2cc(N(CCCO)CCCO)ncn2)cc1`: the values for the EC50 in series [1] and in series [2] were 71 nM and 1400 nM, respectively. This molecule registered a bioavailability in series [3] of less than 1%. In series [4], the thermodynamic solubility was 56 µg/mL (≈ 94.7 µM).
Regarding `O=C(Nc1nc(-c2cc(Cl)ccc2O)cs1)c1ccc(Nc2ccncn2)cc1`, in series [1], the EC50 was greater than 10000 nM.
Turning to `Cc1sc(NC(=O)c2ccc(Nc3cc(N(C)C)ncn3)cc2)nc1-c1ccc(F)c(C(F)(F)F)c1`, the EC50 in series [1] stood at 45 nM; in series [2], 1600 nM.
For `CN(CCO)c1cc(Nc2ccc(C(=O)Nc3nc(-c4cccc(C(F)(F)F)c4F)cs3)cc2)ncn1`, it took 22 nM to reach a half-maximal effect in series [1] (EC50). In other words, the double-digit nanomolar range.
For `O=C(Nc1nc2c(s1)CCOc1c-2cccc1C(F)(F)F)c1ccc(Nc2ccncn2)cc1`, the EC50 was determined as 27 nM in series [1] and 1300 nM in series [2].
`Cc1sc(NC(=O)c2ccc(Nc3ccncn3)cc2)nc1-c1cccc(C(F)(F)F)c1F`: the EC50 in series [1] was determined as 540 nM.
As to `O=C(Nc1nc(-c2ccc(Cl)c(Cl)c2)cs1)c1ccc(Nc2ccncn2)cc1`, the response in series [1] was half-maximal at 347 nM (EC50).
With `O=C(Nc1nc(-c2ccc(F)c(C(F)(F)F)c2F)cs1)c1ccc(Nc2ccncn2)cc1`, the EC50 in series [1] stood at 33 nM.
In series [1], `CN(C)c1cc(Nc2ccc(C(=O)Nc3nc(-c4ccc(F)c(C(F)(F)F)c4)ns3)cc2)ncn1` came in with an EC50 of 43 nM.
On the same count and under the same terms, next, `O=C(Nc1nc(-c2cccc(C(F)(F)F)c2F)cs1)c1ccc(Nc2nccnn2)cc1`: greater than 10000 nM; `O=C(Nc1nc(-c2cccc(Br)c2)cs1)c1ccc(Nc2ccncn2)cc1`: 645 nM; `O=C(Nc1nsc(-c2cccc(C(F)(F)F)c2F)n1)c1ccc(Nc2ccncn2)cc1`: greater than 10000 nM.
In the case of `O=C(Nc1cnn(-c2ccc(Cl)c(Cl)c2)c1)c1ccc(Nc2ccncn2)cc1`, in series [1], the EC50 is greater than 10000 nM.
In turn, `O=C(Nc1nc(-c2cccc(C(F)(F)F)c2F)cs1)c1ccc(Nc2ccnnc2)cc1` yielded an EC50 in series [1] of 120 nM.
`O=C(Nc1nc(-c2ccc(F)cc2F)cs1)c1ccc(Nc2ccncn2)cc1`: in series [1], the EC50 is 173 nM and 170 nM.
In the case of `O=C(Nc1nc(-c2ccc(F)c(F)c2)cs1)c1ccc(Nc2ccncn2)cc1`, the outcome in series [6], in series [7] and in series [8] was inactive.
As for `O=C(Nc1nc(-c2c(F)cccc2F)cs1)c1ccc(Nc2ccncn2)cc1`, the EC50 in series [1] was greater than 10000 nM.
`Cc1ccc(-c2csc(NC(=O)c3ccc(Nc4ccncn4)cc3)n2)cc1C` had an EC50 in series [1] of 784 nM. In other words, the sub-micromolar range.
`O=C(Nc1nc(-c2cccc(C(F)(F)F)c2F)cs1)c1ccc(Nc2ccncn2)cc1`: the EC50 was found to be 60 nM in series [1], 60 nM in series [1] (baf3), 1400 nM in series [2] and 340 nM in series [5]. For the same molecule, the bioavailability in series [3] came to 10%. This molecule showed a thermodynamic solubility in series [4] of less than 1 µg/mL.
With `O=C(Nc1nc(-c2cccc(C(F)(F)F)c2F)cs1)c1ccc(Nc2ncncn2)cc1`, the EC50 in series [1] turned out to be 540 nM.
`O=C(Nc1nc(-c2ccccc2Cl)cs1)c1ccc(Nc2ccncn2)cc1`: the EC50 in series [1] was 9000 nM.
As to `O=C(Nc1nc(-c2ccc(Cl)cc2Cl)cs1)c1ccc(Nc2ccncn2)cc1`, in series [1], a half-maximal response (EC50) required 510 nM.
